For experiment [1], the system named is dipeptidyl aminopeptidase II (DPP II). The conditions noted are these: stated as known; cited from earlier work.
The test system of experiment [2] is Aspergillus parasiticus NRRL2999. Format: cell-based.
Experiment [3] shares this test system. It is filed as cell-based. The source holds these as a separate data set.
The subject of experiment [4] is aflatoxin-producing microorganism. The conditions noted are these: Non-Patent Literature 3; cited from earlier work.

Consider five compounds from patent US8383547B2 (priority 2005, dated 2013).

Take `NCC[C@H](N)C(=O)N1CCCCC1` [Dab-Pip]: the “DPPII inhibition (known)” value in experiment [1] is given as “strong inhibitor”. Further, the “Inhibition of aflatoxin production” value in experiment [2] is reported as “neither Orn-Pip nor Dab-Pip inhibited aflatoxin production”. Moreover, in experiment [3], the “Inhibition of growth of aflatoxin-producing microorganism” value is given as “not observed”.

As to `COP(=O)(OC)OC=C(Cl)Cl` [dichlorvos], the “Aflatoxin production inhibitory activity” value in experiment [4] is reported as “weak”.

For `Cc1cccc2sc3nncn3c12` [tricyclazole], the “Aflatoxin production inhibitory activity” value in experiment [4] was “weak”.

For the compound dioctatin, the “DPPII inhibition (known)” value in experiment [1] is reported as “inhibition of dipeptidyl aminopeptidase II”.

Regarding `NCCCC(N)C(=O)N1CCCCC1` (stereo not drawn) [Orn-Pip], the “DPPII inhibition (known)” value in experiment [1] is “strong inhibitor”. The “Inhibition of aflatoxin production” value in experiment [2] was “neither Orn-Pip nor Dab-Pip inhibited aflatoxin production”. Besides, in experiment [3], the “Inhibition of growth of aflatoxin-producing microorganism” value is “not observed”.
